Assay results: patent publication US10272075B2, “Method and composition for treating an alpha adrenoceptor-mediated condition” (Vanda Pharmaceuticals, Inc., priority 2007, dated 2019)
Values belong to the compound of their own block, whether it stands above or below them.

Columns and labels:
rats [1] = test: bladder outlet obstruction-induced bladder dysfunction in rats, 1-week treatment; format: in vivo, rat; conditions: for effect on bladder hypertrophy secondary to outlet obstruction / effect on cystometric parameters: 1-week treatment; for effect on cystometric parameters: bladder outlet obstruction rats
Experimental: In another experiment, the effect of a 1-week treatment with 4-[3-[4-(6-fluoro-1,2,-benzisoxazol-3-yl)-1-piperidinyl]propoxy]-3-methoxy-benzoic acid, tamulosin, and a common vehicle on bladder outlet obstruction-induced bladder dysfunction in rats was evaluated. […] However, this latter effect was exclusively observed at the lowest dose tested (1 mg/kg/day).

anesthetized rats [2] = test: PE-induced increase in intraurethral pressure (UP) and arterial blood pressure (BP) in anesthetized rats, oral administration; format: in vivo, rat; conditions: for effect on basal BP levels / effect on basal UP: oral; for effect on basal BP levels: 25 and 45 minutes after administration; for effect on basal UP: measured 25 or 45 minutes later; for UP100% value (dose of PE increasing baseline UP by 100%), statistical significance / effect on BP, from BP10% to BP100%: 45 min
Experimental: An experiment was conducted to evaluate the antagonistic effect of 4-[3-[4-(6-fluoro-1,2,-benzisoxazol-3-yl)-1-piperidinyl]propoxy]-3-methoxy-benzoic acid on the PE-induced increase in intraurethral pressure (UP) and arterial blood pressure (BP) in anesthetized rats.

[3] = tested on: human alpha1-adrenoceptors expressed in the prostatic adenoma; test: norepinephrine (NE)-induced contraction in prostatic adenoma from BPH patients (isolated strips, organ bath); conditions: for effect on pEC50 of the second CRC to NE: 60 min incubation
Experimental: Briefly, human prostatic adenoma was obtained from 6 patients (mean age 71±5 years) undergoing transvesical adenomectomy of the prostate because of BPH. Prostatic strips were mounted in glass organ baths containing a modified Krebs-Henseleit solution (NaCl 114 mM, KCl 4.7 mM, CaCl2 2.5 mM, KH2PO4 1.2 mM, NaHCO3 25 mM, glucose 11.7 mM, ascorbic acid 1.1 mM (pH 7.4, gassed with 95% O2 and 5% CO2 at 37° C.) under 1.5 g tension. […] Strips having a contractile response <0.3 g were discarded. After washout and 60 min of re-equilibration to re-establish baseline tension, a first cumulative concentration-response curve to NE (in the range 0.1 μM-1 mM) was constructed until a plateau of contraction was reached. […] Only one concentration of antagonist was tested in a single strip. […] The quantity of DMSO in the organ baths was equal to 0.1%.

alpha1-adrenoceptors [4] = tested on: T1, alpha1-adrenoceptors; conditions: rabbit isolated prostate; cited from earlier work
T1 construct: antagonist potency (pA2) estimated by the Schild plot; other: rabbit isolated prostate, vs PE, 0.1-3 uM, 60 min incubat; other: rabbit isolated prostate, vs PE, single concentration 0.01 μ; pKb; other: rabbit isolated prostate

alpha1-adrenoceptors [5] = test: phenylephrine (PE)-induced contraction in the prostatic smooth muscle of male rabbits (isolated strips, organ bath); parameters: species or system rabbit
Experimental: (§1) It is well established in the literature that the rabbit is a good model for the pharmacology of the lower urinary tract. In particular, a correlation was found between affinities for cloned alpha1a-adrenoceptors and antagonist potency (pKb) values for several alpha1-adrenoceptors antagonists in the rabbit isolated prostate (Martin et al., J. Pharmacol. Expr. Ther. 282: 228-35, 1997). Briefly, following animal sacrifice, transverse preparations of the prostate were suspended vertically in 25 mL glass organ baths under a loading tension of 1 g and placed in an oxygenated, modified Krebs solution (NaCl 114 mM, KCl 4.7 mM, CaCl2 2.5 mM, KH2PO4 1.2 mM, NaHCO3 25 mM, glucose 11.7 mM (pH 7.4, gassed with 95% O2 and 5% CO2 at 37° C.). Propranolol (1 μM), desipramine (0.1 μM), deoxycorticosterone (3 μM) and normetanephrine (1 μM) were added to the Krebs-Henseleit solution in order to block beta-adrenoceptors, neuronal and extraneuronal uptake and catechol-O-methyl transferase, respectively. After 60 min of equilibration, smooth muscle strips were exposed to 30 μM PE to measure their viability. Strips having low contractile responses (<0.5 g) were discarded. Following a 30 min washout period, a first concentration-response curve (CRC) to PE (in the range 0.1 μM-1 mM) was obtained by cumulative additions as half-log unit concentrations increments. Then, tissues were washed for 60 min and incubated for 60 min with the test substance (at four different concentrations) before a second PE CRC was obtained (in the range 0.1 μM-10 mM). Only one concentration for the test substance was tested on each single smooth muscle strip.

alpha1-adrenoceptors [6] = tested on: T1, alpha1-adrenoceptors; test: as above; parameters: species or system rabbit; conditions: rabbit isolated prostate, vs PE
Experimental: as §1

anesthetized rats [7] = test: PE-induced increase in intra-urethral pressure (UP) in anesthetized rats, intravenous administration; format: in vivo, rat; conditions: for effect on agonist (PE) effect on UP: PE dose range 10-300 ug/kg
Experimental: Briefly, catheters were inserted into the femoral vein of anesthetized male rats for drug administration and into the urethra through the bladder wall for measuring urethral pressure (UP). […] The different doses of PE (between 3 and 300 ug/kg in controls and up to 3000 ug/kg in treated animals) were administered intravenously under a volume of 1 mL/kg as a bolus with a 3 minute interval between each dose.

conscious rats = conditions: i.v.; cited from earlier work
[8] = tested on: human isolated prostatic adenoma; conditions: human isolated prostatic adenoma obtained from BPH patients; cited from earlier work
rats [9] = conditions: administered intraduodenally; cited from earlier work
[10] = DMPK studies in rats with [14C]-labelled compound, brain radioactivity; format: in vivo, rat; conditions: rats treated with [14C] compound
Excerpt: 4-[3-[4-(6-fluoro-1,2,-benzisoxazol-3-yl)-1-piperidinyl]propoxy]-3-methoxy-benzoic acid appears not to cross the blood-brain barrier. Specifically, in DMPK studies using rats treated with [14C] […] Therefore, 4-[3-[4-(6-fluoro-1,2,-benzisoxazol-3-yl)-1-piperidinyl]propoxy]-3-methoxy-benzoic acid is particularly useful in conditions that are not mediated, to a substantial degree, by receptors in the brain.

[11] = tested on: dopamine, histamine and serotonin receptors (other than 5HT2A); test: receptor affinity/potency profile, dopamine, histamine and serotonin receptors; format: binding
rat alpha1A-adrenoceptor = target: T2, rat alpha1A-adrenoceptor (Rattus norvegicus, UniProt P43140); test: binding studies, rat alpha1A-adrenoceptor; conditions: data communicated by Dr. Baroldi, Vanda Pharmaceuticals
T2 sequence (P43140 1-466): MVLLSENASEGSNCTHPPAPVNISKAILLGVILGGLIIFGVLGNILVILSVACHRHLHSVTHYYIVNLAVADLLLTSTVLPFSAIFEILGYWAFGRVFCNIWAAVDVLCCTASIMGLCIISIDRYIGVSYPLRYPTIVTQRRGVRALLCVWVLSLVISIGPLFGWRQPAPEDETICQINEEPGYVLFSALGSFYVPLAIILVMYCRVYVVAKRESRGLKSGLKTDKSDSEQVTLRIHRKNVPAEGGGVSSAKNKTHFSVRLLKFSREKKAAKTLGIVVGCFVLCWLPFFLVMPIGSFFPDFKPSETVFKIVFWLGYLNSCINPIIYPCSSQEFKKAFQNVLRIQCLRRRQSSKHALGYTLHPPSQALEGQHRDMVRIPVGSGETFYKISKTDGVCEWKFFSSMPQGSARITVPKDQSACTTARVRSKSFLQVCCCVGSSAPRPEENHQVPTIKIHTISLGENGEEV
Excerpt: (§2) The pA2 of 4-[3-[4-(6-fluoro-1,2,-benzisoxazol-3-yl)-1-piperidinyl]propoxy]-3-methoxy-benzoic acid (7.50) is in accordance with the value previously found on the rabbit isolated prostate. […] Importantly, it is recognized that blockade of both alpha1A-and alpha1D-adrenoceptors is necessary for optimal clinical effect on BPH patients (Andersson K E, World J. Urol. 19: 390-96, 2002).

alpha 1 adrenoceptors = test: receptor affinity/potency profile, alpha 1 adrenoceptors; format: binding
serotonin 5HT2A receptor = serotonin 5HT2A receptor (Homo sapiens, UniProt P28223); test: receptor affinity/potency profile, serotonin 5HT2A receptor; format: binding
Chain of serotonin 5HT2A receptor (P28223 whole entry): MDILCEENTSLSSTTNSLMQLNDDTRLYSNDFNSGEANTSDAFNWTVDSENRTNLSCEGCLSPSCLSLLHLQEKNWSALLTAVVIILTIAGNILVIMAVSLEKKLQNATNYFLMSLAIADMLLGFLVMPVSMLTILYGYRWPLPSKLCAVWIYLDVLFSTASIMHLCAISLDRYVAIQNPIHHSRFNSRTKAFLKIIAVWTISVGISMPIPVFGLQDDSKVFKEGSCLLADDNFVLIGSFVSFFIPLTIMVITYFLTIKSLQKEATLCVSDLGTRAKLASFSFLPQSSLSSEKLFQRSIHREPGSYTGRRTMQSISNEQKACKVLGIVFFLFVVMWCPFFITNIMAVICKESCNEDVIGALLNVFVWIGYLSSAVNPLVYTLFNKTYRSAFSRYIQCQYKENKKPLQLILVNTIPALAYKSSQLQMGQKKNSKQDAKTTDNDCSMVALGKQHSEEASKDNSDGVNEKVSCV

[12] = target: T3, cloned human alpha1 D-adrenoceptor (Homo sapiens, UniProt P25100); test: binding studies, cloned human alpha1D-adrenoceptor; conditions: data communicated by Dr. Baroldi, Vanda Pharmaceuticals
T3 construct: expressed in transfected cells
T3 sequence (P25100 1-572): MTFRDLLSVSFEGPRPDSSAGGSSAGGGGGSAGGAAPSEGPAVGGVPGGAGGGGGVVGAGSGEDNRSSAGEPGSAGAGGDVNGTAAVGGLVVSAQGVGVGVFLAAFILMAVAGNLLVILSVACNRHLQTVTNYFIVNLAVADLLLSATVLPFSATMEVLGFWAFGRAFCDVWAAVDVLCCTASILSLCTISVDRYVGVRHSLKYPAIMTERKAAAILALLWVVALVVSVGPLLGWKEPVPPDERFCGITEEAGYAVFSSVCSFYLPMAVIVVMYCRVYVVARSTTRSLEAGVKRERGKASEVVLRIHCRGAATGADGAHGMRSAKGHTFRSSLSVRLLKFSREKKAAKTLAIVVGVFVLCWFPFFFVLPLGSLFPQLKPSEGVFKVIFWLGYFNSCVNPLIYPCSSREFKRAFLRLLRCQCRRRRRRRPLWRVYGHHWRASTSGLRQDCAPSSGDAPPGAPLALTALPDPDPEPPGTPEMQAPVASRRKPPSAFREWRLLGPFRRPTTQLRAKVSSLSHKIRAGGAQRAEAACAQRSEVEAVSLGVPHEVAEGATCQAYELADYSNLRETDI
Excerpt: as §2

effect on pEC50 of the second CRC to NE [3]: induced a shift | pA2 calculated from the dose-ratio of pEC50 values (alpha1-adrenoceptors [6]; single concentration 0.01 μM): 10.21
SMILES: CCOc1ccccc1OCCN[C@H](C)Cc1ccc(OC)c(S(N)(=O)=O)c1 [tamsulosin, reference compound]
effect on bladder hypertrophy secondary to outlet obstruction (rats [1]): devoid of effect | effect on cystometric parameters (rats [1]): completely ineffective | effect on basal BP levels (anesthetized rats [2]): significantly decreased | effect on basal UP (anesthetized rats [2]): no effect | effect on Emax of NE concentration-response curve [3]: no effect | pKb (alpha1-adrenoceptors [4]): 9.74 | effect on Emax of PE concentration-response curve (alpha1-adrenoceptors [5]): unaffected | potency of tamsulosin relative to the test substance (times more potent) (alpha1-adrenoceptors [5]; rabbit preparation, based on similar PE pEC50 values): 300 times | effect on agonist (PE) effect on UP (anesthetized rats [7]; tamsulosin 10 ug/kg): statistically significant decrease

SMILES: COc1cc2nc(N(C)CCCNC(=O)C3CCCO3)nc(N)c2cc1OC (centres unmarked) [alfuzosin]
potency relative to tamsulosin (fold less potent) in decreasing basal urethral pressure (conscious rats): 10 fold | pKb [8]: 7.78 | pKb (alpha1-adrenoceptors [4]): 7.25

SMILES: C[C@H](Cc1cc2c(c(C(N)=O)c1)N(CCCO)CC2)NCCOc1ccccc1OCC(F)(F)F [silodosin]
potency relative to tamsulosin (times less potent) on UP (rats [9]): 2.8 times

SMILES: COc1cc(C(=O)O)ccc1OCCCN1CCC(c2noc3cc(F)ccc23)CC1 [4-[3-[4-(6-fluoro-1,2,-benzisoxazol-3-yl)-1-piperidinyl]propoxy]-3-methoxy-benzoic acid]
radioactivity concentrations in the brain (blood-brain barrier crossing) [10]: none of the animals had measurable radioactivity concentrations in the brain | activity with respect to the dopamine, histamine and serotonin receptors (other than 5HT2A) [11]: very weak if any activity | effect on bladder hypertrophy secondary to outlet obstruction (rats [1]): devoid of effect | effect on cystometric parameters (rats [1]): devoid of significant effect | effect on amplitude of unstable contractions (rats [1]; exclusively at the lowest dose tested (1 mg/kg/day)): significantly decreased | effect on PE-induced increase of basal UP (anesthetized rats [2]; 0.5 mg/kg p.o.): ineffective | effect on PE-induced increase of basal UP (anesthetized rats [2]; 1.5 mg/kg p.o.): slight effect | UP100% value (dose of PE increasing baseline UP by 100%), statistical significance (anesthetized rats [2]; 1.5 mg/kg p.o.): reached the level of statistical significance | effect on BP, from BP10% to BP100% (anesthetized rats [2]; 1.5 mg/kg p.o.): significant | effect on PE-induced increase of basal UP (anesthetized rats [2]; 4.5 mg/kg p.o.): slight effect | UP100% value (dose of PE increasing baseline UP by 100%), statistical significance (anesthetized rats [2]; 4.5 mg/kg p.o.): not | effect on BP, from BP10% to BP100% (anesthetized rats [2]; 4.5 mg/kg p.o.): no effect | potency relative to tamsulosin (times less potent) on both UP and BP (anesthetized rats [2]; oral route, 1.5 mg/kg at 45 min equipotent with 0.3 mg/kg tamsulosin): about 5 times | effect on basal BP levels (anesthetized rats [2]): significantly decreased | effect on basal UP (anesthetized rats [2]): no effect | IC50 (rat alpha1A-adrenoceptor): 11.5 nM | effect on Emax of NE concentration-response curve [3]: no effect | effect on pEC50 of the second CRC to NE [3]: concentration-dependent shift | potency relative to tamsulosin (times less potent) ([3]; human alpha1-adrenoceptors in prostatic adenoma): approximately 100 times | pA2 estimated by the Schild Plot ([3]; human prostatic adenoma, vs NE, dose-ratios corrected by solvent group): 7.50 | affinity/potency for alpha 1 adrenoceptors compared with alpha 2 adrenoreceptors (alpha 1 adrenoceptors): slightly greater affinity/potency | affinity and potency among receptors (alpha 1 adrenoceptors; alpha 1 adrenoceptors): greatest affinity and is most potent | effect on Emax of PE concentration-response curve (alpha1-adrenoceptors [5]): unaffected | effect on PE-induced contractions (alpha1-adrenoceptors [5]; n=6 for each dose, 0.1-3 uM): concentration-dependently antagonized | antagonist potency (pA2) estimated by the Schild plot (alpha1-adrenoceptors [6]; 0.1-3 uM, 60 min incubation): 7.47 | affinity and potency among receptors (serotonin 5HT2A receptor): greatest affinity and is most potent | effect on delta UP (over baseline) induced by PE (anesthetized rats [7]; 10 ug/kg i.v., PE 100 ug/kg): statistically significant inhibitory effect | effect on delta UP (over baseline) induced by PE (anesthetized rats [7]; 33.3 ug/kg i.v., PE 30-100 and 150 ug/kg): statistically significant inhibitory effect | dose response curve to PE (urethral pressure) (anesthetized rats [7]; 10, 33.3 and 100 ug/kg i.v.): dose-dependently shifted to the right | potency relative to tamsulosin (times less potent) (anesthetized rats [7]; intravenous route, anesthetized rats): approximately 10 times | effect on agonist (PE) effect on UP (anesthetized rats [7]; test substance 100 ug/kg i.v.): statistically significant decrease | IC50 [12]: 17.8 nM
